pIC50: −log10 of the molar value.
Columns and labels:
B-Raf delta1-415 = B-Raf delta1-415 (Homo sapiens, UniProt P15056); assay: B-Raf kinase inhibition (MAPH filter plate, 33P-ATP, MEK1 substrate); conditions: read-out: Biochemical IC50 B-Raf
How it was run: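 IC50 values come from dilution series (top 10 μM) measured by scintillation counting of 33P-labelled MEK1 retained on H3PO4-washed filters. Reactions ran 1 h at room temperature in pH 7.0 Mops buffer with MgCl2, MnCl2 and DTT, using 12.5 μCi/ml [γ-33P]ATP and B-Raf delta1-415 titrated to 50% turnover.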

HT-29 tumor cells = assay: Anti-proliferative activity, SRB assay; type: cell-based, human; conditions: Homo sapiens, HT-29, 72 h, 72 hours exposure, read-out: CELLULAR IC50 HT-29
How it was run: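 IC50 derived from % inhibition relative to DMSO controls, measured by sulforhodamine B binding (OD570) after TCA fixation. Cells (3,000-15,000 per well) were seeded a day ahead, then treated with graded compound concentrations for 72 hours.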

B-Raf delta1-415, sequence (P15056 416-766): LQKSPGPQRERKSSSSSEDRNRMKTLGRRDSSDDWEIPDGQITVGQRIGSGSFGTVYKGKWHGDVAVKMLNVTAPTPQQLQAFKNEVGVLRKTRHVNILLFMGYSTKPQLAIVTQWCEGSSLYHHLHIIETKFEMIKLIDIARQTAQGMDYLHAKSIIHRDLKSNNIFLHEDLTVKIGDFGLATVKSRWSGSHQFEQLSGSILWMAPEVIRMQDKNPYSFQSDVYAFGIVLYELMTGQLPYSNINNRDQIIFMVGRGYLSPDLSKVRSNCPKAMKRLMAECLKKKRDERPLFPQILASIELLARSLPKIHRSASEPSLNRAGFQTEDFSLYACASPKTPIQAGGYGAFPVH

Row | Compound | pIC50 (B-Raf delta1-415) | pIC50 (HT-29 tumor cells)
1 | COC(=O)c1ccc(Nc2ncc3cc(-c4c(Cl)cccc4Cl)c(=O)n(OC)c3n2)cc1 [Compound 162, 6-(2,6-Dichlorophenyl)-2-(4-methoxycarbonylphenyl)-amino-8-methoxy-pyrido[2,3-d]pyrimidin-7-one] | < 6.00 | > 6.00
2 | O=c1c(-c2c(F)cccc2Cl)cc2cnc(Nc3ccccc3)nc2n1OCC1CCOCC1 [Compound 164, 6-(2-Chloro-6-fluorophenyl)-2-phenylamino-8-(tetrahydropyran-4-ylmethyl)oxy-pyrido[2,3-d]pyrimidin-7-one] | < 6.00 | > 6.00
3 | COn1c(=O)c(-c2c(Cl)cccc2Cl)cc2cnc(Nc3ccccc3)nc21 [Compound 174, 6-(2,6-Dichlorophenyl)-8-methoxy-2-phenylamino-pyrido[2,3-d]pyrimidin-7-one] | > 6.00 | > 6.00
4 | COCCN(C)C(=O)c1cc(Nc2ncc3cc(-c4c(Cl)cccc4Cl)c(=O)n(OCC4CCOCC4)c3n2)cn1C [Compound 177, 6-(2,6-dichlorophenyl)-2-(5-N-(2-methoxyethyl)-N-methyl-aminocarbonyl-1-methyl-pyrrol-3-yl)-amino-8-(tetrahydropyran-4-ylmethyl)oxy-pyrido[2,3-d]pyrimidin-7-one] | > 6.30 | > 6.00
5 | COn1c(=O)c(-c2c(Cl)cccc2Cl)cc2cnc(Nc3ccc(CNCCO)cc3)nc21 [Compound 178, 2-(4-(2-hydroxyethylamino)methyl-phenyl)-amino-6-(2,6-dichlorophenyl)-8-methoxy-pyrido[2,3-d]pyrimidin-7-one] | > 6.30 | > 6.00
6 | COn1c(=O)c(-c2c(Cl)cccc2Cl)cc2cnc(Nc3cccc(CN4CC[C@H](O)C4)c3)nc21 [Compound 181, 6-(2,6-Dichlorophenyl)-2-(3-(3-(S)-hydroxypyrrolidinomethyl)phenyl)-amino-8-methoxy-pyrido[2,3-d]pyrimidin-7-one] | > 6.30 | > 6.00
7 | COn1c(=O)c(-c2c(Cl)cccc2Cl)cc2cnc(Nc3cccc(CN4CC[C@@H](O)C4)c3)nc21 [Compound 182, 6-(2,6-Dichlorophenyl)-2-(3-(3-(R)-hydroxypyrrolidinomethyl)phenyl)-amino-8-methoxy-pyrido[2,3-d]pyrimidin-7-one] | > 6.30 | > 6.00
8 | COn1c(=O)c(-c2c(Cl)cccc2Cl)cc2cnc(Nc3cccc(CN4CCC(F)(F)C4)c3)nc21 [Compound 183, 6-(2,6-Dichlorophenyl)-2-(3-(3,3-difluoropyrrolidinomethyl)phenyl)-amino-8-methoxy-pyrido[2,3-d]pyrimidin-7-one] | < 6.00 | > 6.00
9 | O=c1c(-c2c(Cl)cccc2Cl)cc2cnc(Nc3ccccc3)nc2n1OCC1CCOCC1 [Compound 186, 6-(2,6-Dichlorophenyl)-2-phenylamino-8-(tetrahydropyran-4-ylmethyl)oxy-pyrido[2,3-d]pyrimidin-7-one] | > 6.30 | > 6.00
10 | COn1c(=O)c(-c2c(Cl)cccc2Cl)cc2cnc(Nc3ccc(N4CCN(C(C)C)CC4)cc3)nc21 [Compound 187] | > 6.30 | > 6.00
11 | COCCN1CCN(C(=O)c2cc(Nc3ncc4cc(-c5c(Cl)cccc5Cl)c(=O)n(OC)c4n3)cn2C)CC1 [Compound 188, 6-(2,6-Dichlorophenyl)-8-methoxy-2-(5-(4-(2-methoxy)ethyl)piperazino-carbonyl-1-methyl-pyrrol-3-yl)-amino-pyrido[2,3-d]pyrimidin-7-one] | > 6.30 | > 6.00
12 | CCN1CCN(c2ccc(Nc3ncc4cc(-c5c(Cl)cccc5Cl)c(=O)n(OC)c4n3)cc2)CC1 [Compound 189, 6-(2,6-Dichlorophenyl)-2-(4-(4-ethylpiperazino)phenyl)-amino-8-methoxy-pyrido[2,3-d]pyrimidin-7-one] | > 6.30 | > 6.00
13 | COn1c(=O)c(-c2c(Cl)cccc2Cl)cc2cnc(Nc3ccccc3F)nc21 [Compound 190, 6-(2,6-Dichlorophenyl)-2-(2-fluorophenyl)amino-8-methoxy-pyrido[2,3-d]pyrimidin-7-one] | < 6.00 | > 6.00
14 | COn1c(=O)c(-c2c(Cl)cccc2Cl)cc2cnc(Nc3ccc(Br)cc3)nc21 [Compound 191, 2-(4-Bromophenyl)amino-6-(2,6-dichlorophenyl)-8-methoxy-pyrido[2,3-d]pyrimidin-7-one] | < 6.00 | > 5.00
15 | COn1c(=O)c(-c2c(Cl)cccc2Cl)cc2cnc(Nc3ccc(C(C)=O)cc3)nc21 [Compound 192, 2-(4-Acetylphenyl)amino-6-(2,6-dichlorophenyl)-8-methoxy-pyrido[2,3-d]pyrimidin-7-one] | > 6.30 | > 6.00

Further lines, results first:

Row | pIC50 (B-Raf delta1-415) | pIC50 (HT-29 tumor cells) | Compound
16 | > 6.30 | > 6.00 | COn1c(=O)c(-c2c(Cl)cccc2Cl)cc2cnc(Nc3cc(C(=O)N4CCN(C)CC4)n(C)c3)nc21 [Compound 163, 6-(2,6-Dichlorophenyl)-8-methoxy-2-(5-(4-methylpiperazino)carbonyl-1-methyl-pyrrol-3-yl)-amino-pyrido[2,3-d]pyrimidin-7-one]
17 | > 6.30 | > 6.00 | O=c1c(-c2c(Cl)cccc2Cl)cc2cnc(Nc3ccccc3)nc2n1OCc1cccnc1 [Compound 165, 6-(2,6-Dichlorophenyl)-2-phenylamino-8-(pyrid-3-ylmethyl)oxy-pyrido[2,3-d]pyrimidin-7-one]
18 | > 6.30 | > 6.00 | COn1c(=O)c(-c2c(Cl)cccc2Cl)cc2cnc(Nc3ccc(CN4CCN(C(C)C)CC4)cc3)nc21 [Compound 166]
19 | > 6.30 | > 6.00 | CCN(CC)Cc1ccc(Nc2ncc3cc(-c4c(Cl)cccc4Cl)c(=O)n(OC)c3n2)cc1 [Compound 167, 6-(2,6-Dichlorophenyl)-2-(4-diethylaminomethylphenyl)-amino-8-methoxy-pyrido[2,3-d]pyrimidin-7-one]
20 | > 6.30 | > 6.00 | COn1c(=O)c(-c2c(Cl)cccc2Cl)cc2cnc(Nc3ccc(CN4CC(O)C4)cc3)nc21 [Compound 168]
21 | > 6.30 | > 6.00 | COn1c(=O)c(-c2c(Cl)cccc2Cl)cc2cnc(Nc3ccc(CN4CCC[C@H]4CO)cc3)nc21 [Compound 169, 6-(2,6-Dichlorophenyl)-2-(4-(2-(S)-hydroxymethyl-pyrrolidinomethyl)phenyl)-amino-8-methoxy-pyrido[2,3-d]pyrimidin-7-one]
22 | > 6.30 | > 6.00 | COCCOn1c(=O)c(-c2c(Cl)cccc2Cl)cc2cnc(Nc3cc(C(=O)N(C)CCOC)n(C)c3)nc21 [Compound 170, 6-(2,6-Dichlorophenyl)-8-(2-methoxyethyl)oxy-2-(5-N-(2-methoxyethyl)-N-methyl-aminocarbonyl-1-methyl-pyrrol-3-yl)-amino-pyrido[2,3-d]pyrimidin-7-one]
23 | > 6.30 | > 6.00 | CCOn1c(=O)c(-c2c(Cl)cccc2Cl)cc2cnc(Nc3cc(C(=O)N(C)CCOC)n(C)c3)nc21 [Compound 171, 6-(2,6-Dichlorophenyl)-8-ethoxy-2-(5-N-(2-methoxyethyl)-N-methyl-aminocarbonyl-1-methyl-pyrrol-3-yl)-amino-pyrido[2,3-d]pyrimidin-7-one]
24 | > 6.30 | > 6.00 | O=c1c(-c2c(F)cccc2Cl)cc2cnc(Nc3ccc(N4CCOCC4)cc3)nc2n1OCC1CCC1 [Compound 172]
25 | > 6.30 | > 6.00 | O=c1c(-c2c(F)cccc2Cl)cc2cnc(Nc3ccc(N4CCOCC4)cc3)nc2n1OCC1CCCC1 [Compound 173]
26 | > 6.30 | > 6.00 | COn1c(=O)c(-c2c(Cl)cccc2Cl)cc2cnc(Nc3ccc(Cn4cnnc4)cc3)nc21 [Compound 175, 2-(4-(1,3,4-triazol-1-yl)methylphenyl)-amino-6-(2,6-dichlorophenyl)-8-methoxy-pyrido[2,3-d]pyrimidin-7-one]
27 | > 6.30 | > 6.00 | COCCN(C)C(=O)c1cc(Nc2ncc3cc(-c4c(Cl)cccc4Cl)c(=O)n(OCC4CC4)c3n2)cn1C [Compound 176, 6-(2,6-Dichlorophenyl)-8-cyclopropylmethyloxy-2-(5-N-(2-methoxyethyl)-N-methyl-aminocarbonyl-1-methyl-pyrrol-3-yl)-amino-pyrido[2,3-d]pyrimidin-7-one]
28 | > 7.00 | > 6.00 | COn1c(=O)c(-c2c(Cl)cccc2Cl)cc2cnc(Nc3ccc(CN4CC[C@@H](O)C4)cc3)nc21 [Compound 179, 6-(2,6-Dichlorophenyl)-2-(4-(3-(R)-hydroxypyrrolidinomethyl)phenyl)-amino-8-methoxy-pyrido[2,3-d]pyrimidin-7-one]
29 | > 7.00 | > 6.00 | COn1c(=O)c(-c2c(Cl)cccc2Cl)cc2cnc(Nc3ccc(CN4CC[C@H](O)C4)cc3)nc21 [Compound 180, 6-(2,6-Dichlorophenyl)-2-(4-(3-(S)-hydroxypyrrolidinomethyl)phenyl)-amino-8-methoxy-pyrido[2,3-d]pyrimidin-7-one]
30 | > 7.00 | > 6.00 | COn1c(=O)c(-c2c(Cl)cccc2Cl)cc2cnc(Nc3ccc(N4CCNCC4)cc3)nc21 [Compound 184, 6-(2,6-Dichlorophenyl)-8-methoxy-2-(4-piperazinophenyl)-amino-pyrido[2,3-d]pyrimidin-7-one]
31 | > 7.00 | > 6.00 | COn1c(=O)c(-c2c(Cl)cccc2Cl)cc2cnc(Nc3cc(C(=O)N4CCNCC4)n(C)c3)nc21 [Compound 185, 6-(2,6-Dichlorophenyl)-8-methoxy-2-(5-piperazinocarbonyl-1-methyl-pyrrol-3-yl)-amino-pyrido[2,3-d]pyrimidin-7-one]
